Where “and” joins values, the source holds several entries; their conditions need not be identical. Equal entries are not always repeated. Where two headings read alike, the source gives them in different places. Blank lines part the entries; values can stand above or below the compound they belong to.
Key:
human AT1R = biological target: T1, human AT1R (Homo sapiens, UniProt P30556); assay: Competition binding assay in membranes containing human AT1R, [125I]-(Sar1,Ile8)-Angiotensin II as radioligand; conditions: human AT1R membranes from CHO-K1 cells, displacement of [125I]-(Sar1,Ile8)-Angiotensin II, n = 3
T1 construct: purchased Perkin Elmer (Waltham, MA, USA); host or cells: CHO-K1 cells (recombinant membrane preparation)
T1 sequence (P30556 1-359): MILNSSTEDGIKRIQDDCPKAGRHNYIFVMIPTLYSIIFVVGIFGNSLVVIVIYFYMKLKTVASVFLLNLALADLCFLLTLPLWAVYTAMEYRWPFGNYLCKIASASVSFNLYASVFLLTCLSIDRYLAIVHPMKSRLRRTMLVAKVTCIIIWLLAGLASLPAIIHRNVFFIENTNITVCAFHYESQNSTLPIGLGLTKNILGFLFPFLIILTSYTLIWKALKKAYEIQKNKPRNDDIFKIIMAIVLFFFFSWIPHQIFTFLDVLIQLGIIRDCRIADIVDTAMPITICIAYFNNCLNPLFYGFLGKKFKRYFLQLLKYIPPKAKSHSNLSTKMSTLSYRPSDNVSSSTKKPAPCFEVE
Experimental: The assays were performed using membranes expressing the human angiotensin II type 1 receptor from CHO-K1 cells, purchased from Perkin Elmer (Waltham, MA, USA). […] The hot ligand [^125I]-(Sar1,Ile8)-Angiotensin II (81.4 TBq/mmol) was also purchased from Perkin Elmer (USA). The Multiscreen MSFCN6B50 96-well plates were used for this assay. The procedure was based on the recommended assay conditions from Perkin Elmer (Waltham, MA, USA) and procedures previously described for other AT1R ligands [22, 23]. Briefly, the 96-well plate was preincubated for 1–2 h at 4 °C with 200 μL of 0.5% BSA (Bovine Serum Albumin) followed by washing (3 times) with an assay buffer. Next, 150 µL of the membranes, diluted (1:150) in the buffer assay (50 mM Tris-HCl pH 7.4, 5 mM MgCl2) to a final concentration of 0.6 μg/well, were added to the wells followed by the addition of cold (25 µL) and hot ligand (25 µL). The plate was incubated for 60 min at 27 °C under stirring and at the end of the experiment all wells were washed (9 times) with ice-cold wash buffer (50 mM Tris-HCl pH 7.4) using vacuum. Afterwards, membranes were punched out and counted in a Perkin Elmer (Waltham, MA, USA) Wizard2 2480 automatic gamma counter. The Ki values were calculated by a non-linear curve fitting using GraphPad Prism 7.01 Software (San Diego, CA, USA). The experiment was done in triplicate.

[1] = design: method as in earlier work; conditions: cited from earlier work
[2] = Log D7.4 measurement (octanol/PBS, gamma counting); type: physicochemical; conditions: pH 7.4, n = 3
Experimental: The log D7.4 values were determined according to the literature. Aliquots (2 μL) of [^18F]FEtLos and [^18F]AMBF3Los were added to polypropylene tubes containing 3 mL of octanol and 3 mL of PBS (phosphate-buffered saline). The samples were vortexed for 20 s (2 times) and centrifuged at 600× g for 15 min. Aliquots (0.1 mL) of each layer were counted in a gamma counter to determine the log D7.4 as log (counts in octanol layer/counts in PBS layer).

CHO-AT1R cells = assay: Cell binding (uptake) assay in CHO-AT1R and CHO cells; type: cell-based, Chinese hamster; conditions: 60 min at 4 °C; for AT1R-specific binding to CHO-AT1R cells (blocking with losartan potassium): losartan potassium 100 µM/well
Experimental: The cell binding assays were performed based on previous reports with modifications. […] To saturate the AT1R, the cells of the blocking group were treated with losartan 30 min before adding the radiolabelled compound. At the end of the incubation period, the supernatant was aspirated and cells were washed six times with ice-cold PBS, and further removed with cell scraper and transferred to a gamma counter tube. The cellular activity was counted in a Cobra II gamma counter (Packard). […]
(§1) Supplemental material and methods
1. Binding assays in cells with [18F]FEtLos
CHO-AT1R and CHO cells ([…]) were plated in a 6-well plate overnight and then incubated for one hour at 4 °C with 10 µCi (370 kBq) of [18F]FEtLos per well, in presence or absence […]
(§2) At the end of the incubation period, the supernatant was aspirated and cells were washed six times with ice-cold PBS, and further removed with cell scraper and transferred to a gamma counter tube. The activity in the cells was counted in a Cobra II gamma counter (Packard). […]

[3] = Biodistribution at 60 min p.i. in healthy NSG mice; type: in vivo, NOD.Cg-Prkdc^scidIl2rg^tm1Wjl/SzJ mice; conditions: n = 3
Experimental: Experiments involving animals were approved by the Animal Ethics Committee of the University of British Columbia (Protocol number: A16-0128). Immunodeficient NOD.Cg-Prkdc^scidII2rg^tm1Wjl/SzJ (NSG) mice were obtained from an in-house breeding colony at the Animal Resource Centre at BC Cancer Research Facility. Mice were always divided into baseline and AT1R blocked groups to assess the AT1R binding specificity of [^18F]AMBF3Los with the co-injection of the AT1R blocker losartan (18 mg/kg, dissolved in PBS).
(§3) The in vivo AT1R binding specificity of [^18F]AMBF3Los was evaluated in healthy mice by a dynamic PET scan. Healthy NSG mice were injected in the tail vein with 6 ± 1 MBq (170 ± 38 μCi) of [^18F]AMBF3Los and a sixty-minute dynamic PET scans was carried out on a μPET/CT scanner (Inveon, Siemens) following procedures reported previously. Alternatively, [^18F]AMBF3Los was concomitantly injected with the AT1R blocker losartan (18 mg/kg) before the dynamic acquisition. Before and during the acquisition, mice were sedated with a continuous flow of isoflurane anesthesia (2% isoflurane in oxygen). The µPET/CT images were analyzed with PMOD v3.3 software (PMOD Technologies, Zürich, Switzerland). An elliptical volume-of-interest that enclosed the entire kidney was positioned manually on the PET images for the determination of the kidney volume. Then, 3-dimensional isocontours were drawn automatically. For each VOI, the percentage of the injected dose in the region of interest, divided by the injected dose per animal weight (% ID/g) could be calculated directly using the output parameters from the μPET.
After the sixty-minute dynamic PET scans, anesthetized mice were euthanized by carbon dioxide asphyxiation and blood, fat, testis, intestines, stomach, spleen, liver, pancreas, adrenal glands, kidneys, lungs, heart, muscle, bone and brain were harvested, rinsed in PBS, weighted and counted in a Perkin Elmer (Waltham, MA, USA) Wizard2 2480 automatic gamma counter to quantify the percent of injected dose per gram of tissue (% ID/g).

renal AT1R [4] = assay: Dynamic µPET scan of healthy NSG mice; type: in vivo, NOD.Cg-Prkdc^scidIl2rg^tm1Wjl/SzJ mice; conditions: early time points (10, 15 and 20 min), losartan 18 mg/kg
Experimental: as §3

renal AT1R [5] = assay: Autoradiography of mouse kidneys after 60-min dynamic µPET scan; type: in vivo, NOD.Cg-Prkdc^scidIl2rg^tm1Wjl/SzJ mice; conditions: autoradiography after 60-min dynamic µPET scan, co-injection of losartan potassium
Source text: Kidneys harvested from healthy NSG mice (after the biodistribution studies), were rinsed in PBS and frozen in isopentane/dry-ice bath. Ten μm-thick slides of the kidneys were obtained using a cryostat (Leica, Wetzlar, Germany), and thaw-mounted onto Superfrost Plus microscope slides (Fischerbrand from Thermo Fisher Scientific, Toronto, ON, Canada), following general procedures of the lab. Afterwards, kidney slides were exposed to a phosphor screen overnight and imaged on a Typhoon FLA 9500 scanner (GE Healthcare, Chicago, IL, USA).

renal AT1R [6] = assay: Ex vivo µPET/CT imaging of mouse kidneys 10 min p.i.; type: in vivo, Balb/c Nude mice; conditions: losartan 70 mg/kg
Experimental: The renal AT1R binding specificity of [^18F]FEtLos was also evaluated by an ex vivo µPET/CT imaging of Balb/c Nude mice kidneys 10 min post injection (p.i.) of the tracer. […] These positive results of the ex vivo renal AT1R binding of [^18F]FEtLos might be possible due to the high AT1R density in the kidneys, that allows visualizing specific uptake in spite of the low AT1R binding affinity of [^18F]FEtLos.
Figure S12. Calibration curve for determining the molar activity of [18F]FEtLos. The curve represent the correlation between the area under the curve (AUC), recorded from the analytical HPLC profile at 254 nm, and the amount (nmol) of the product injected onto analytical HPLC.
as §1
1. Binding assays in cells with [18F]FEtLos […]
as §2
The AT1R binding specificity of [18F]FEtLos was evaluated by ex vivo µPET/CT imaging of healthy Balb/c Nude mice kidneys after ten minutes of intravenous injection of [18F]FEtLos with […]
(AT1R blocked). […] The ex vivo µPET/CT imaging was recorded using a FOV (field of view) of 60 mm and 15 min for PET scan, and 35 kV and 400 µA for CT scan.

rat kidney AT1R = biological target: rat kidney AT1R; design: method as in PMID 27199365; conditions: read-out: dissociation constant, KD; cited from earlier work
[7] = design: method as in PMID 27199365; conditions: in vivo, 60 min; cited from earlier work
[8] = AT1R Blocking (co-injection of losartan 18 mg/kg)

Compound: CCCCc1nc(Cl)c(COCCF)n1Cc1ccc(-c2ccccc2-c2nnn[nH]2)cc1 [FEtLos, 2-butyl-4-chloro-5-(2-fluoroethoxy)methyl-1-[(2′-(1H-tetrazol-5-yl)biphenyl-4-yl)methyl]-1H-imidazole]
Ki (human AT1R): 2200 ± 200 nM

Compound: CCCCc1nc(Cl)c(CO)n1Cc1ccc(-c2ccccc2-c2nn[nH]n2)cc1 [Losartan potassium, 2-butyl-4-chloro-5-hydroxymethyl-1-[(2′-(1H-tetrazol-5-yl)biphenyl-4-yl)methyl]-1H-imidazole]
log D7.4 [1]: 1.7

Compound: CCCCc1nc(Cl)c(Cn2cc(CCCOc3cccnc3[18F])nn2)n1Cc1ccc(-c2ccccc2-c2nnn[nH]2)cc1 [[^18F]FPyKYNE-losartan]
Kd (rat kidney AT1R): 49.4 nM
liver uptake [7]: 66.7 % ID/g

The next lines start with results.

Ki (human AT1R): 7.9 nM
Compound: CCCCc1nc(Cl)c(Cn2cc(C[N+](C)(C)C[B-](F)(F)F)nn2)n1Cc1ccc(-c2ccccc2-c2nnn[nH]2)cc1 [AMBF3Los, 2-butyl-4-chloro-5-[((1H-1,2,3-triazol-4-yl)-(N,N-dimethyl-ammoniomethyl-trifluoroborate)methyl)methyl]-1-[(2′-(1H-tetrazol-5-yl)biphenyl-4-yl)methyl]-1H-imidazole]

log D7.4 [2]: −0.43 ± 0.02 and −0.4
Uptake, Adrenal glands [3, 8]: 0.11 ± 0.06 % ID/g
Uptake, Blood [3, 8]: 0.08 ± 0.08 % ID/g
Uptake, Bone [3, 8]: 0.11 ± 0.03 % ID/g
Uptake, Brain [3, 8]: 0.005 ± 0.004 % ID/g
Uptake, Fat [3, 8]: 0.008 ± 0.002 % ID/g
Uptake, Heart [3, 8]: 0.04 ± 0.03 % ID/g
Uptake, Intestines [3, 8]: 62 ± 3 % ID/g
Uptake, Kidneys [3, 8]: 1.9 ± 1.3 % ID/g
Uptake, Liver [3, 8]: 0.6 ± 0.3 % ID/g
Uptake, Lungs [3, 8]: 0.08 ± 0.04 % ID/g
Uptake, Muscle [3, 8]: 0.05 ± 0.04 % ID/g
Uptake, Pancreas [3, 8]: 0.07 ± 0.06 % ID/g
Uptake, Spleen [3, 8]: 0.08 ± 0.03 % ID/g
Uptake, Stomach [3, 8]: 2 ± 2 % ID/g
Uptake, Testis [3, 8]: 0.029 ± 0.008 % ID/g
Uptake, Adrenal glands ([3]; Baseline): 0.1 ± 0.1 % ID/g
Uptake, Blood ([3]; Baseline): 0.05 ± 0.03 % ID/g
Uptake, Bone ([3]; Baseline): 0.11 ± 0.06 % ID/g
Uptake, Brain ([3]; Baseline): 0.006 ± 0.005 % ID/g
Uptake, Fat ([3]; Baseline): 0.011 ± 0.004 % ID/g
Uptake, Heart ([3]; Baseline): 0.03 ± 0.01 % ID/g
Uptake, Intestines ([3]; Baseline): 63 ± 9 % ID/g
Uptake, Kidneys ([3]; Baseline): 3.5 ± 1.2 % ID/g
Uptake, Liver ([3]; Baseline): 0.5 ± 0.5 % ID/g
Uptake, Lungs ([3]; Baseline): 0.06 ± 0.03 % ID/g
Uptake, Muscle ([3]; Baseline): 0.02 ± 0.01 % ID/g
Uptake, Pancreas ([3]; Baseline): 0.05 ± 0.03 % ID/g
Uptake, Spleen ([3]; Baseline): 0.2 ± 0.1 % ID/g
Uptake, Stomach ([3]; Baseline): 0.06 ± 0.05 % ID/g
Uptake, Testis ([3]; Baseline): 0.03 ± 0.01 % ID/g
Compound: CCCCc1nc(Cl)c(Cn2cc(C[N+](C)(C)C[B-](F)(F)[18F])nn2)n1Cc1ccc(-c2ccccc2-c2nnn[nH]2)cc1 [[^18F]AMBF3Los, [^18F]ammoniomethyltrifluoroborate-losartan]
in vitro cellular uptake in CHO-AT1R cells compared to CHO cells (CHO-AT1R cells; 10 µCi per well): higher uptake
AT1R-specific binding to CHO-AT1R cells (blocking with losartan potassium) (CHO-AT1R cells): receptor-specific
renal cortex uptake in dynamic µPET with co-injected losartan potassium versus baseline (renal AT1R [4]): reduced
renal cortex activity, times smaller in mouse blocked with losartan potassium versus unblocked (renal AT1R [5]): approximately 5 times

logD ([2]; pH 7.4, octanol/PBS): 0.21 ± 0.09
Compound: CCCCc1nc(Cl)c(COCC[18F])n1Cc1ccc(-c2ccccc2-c2nnn[nH]2)cc1 [[^18F]FEtLos, [^18F]fluoroethyl-losartan]
AT1R-specific binding to CHO-AT1R cells (blocking with losartan potassium) (CHO-AT1R cells): did not show any specific AT1R binding
AT1R-specific binding to CHO-AT1R cells (blocking with losartan potassium) (CHO-AT1R cells; listed as [18F]FEtLos): non-significant blocking effect
kidney uptake in ex vivo µPET/CT, baseline versus co-injected losartan potassium (renal AT1R [6]): high uptake in the kidneys (baseline), which was blocked

Reference: paper PMC7221519, “Synthesis and Evaluation of [^18F]FEtLos and [^18F]AMBF3Los as Novel ^18F-Labelled Losartan Derivatives for Molecular Imaging of Angiotensin II Type 1 Receptors” (Molecules, 2020)
